Several values for one entry are separate records, joined by “and”; a condition that tells them apart may be missing. Equal values may be shown once.
Legend:
[1] = Inhibition on stress ulcer; format: in vivo, Sprague-Dawley rats; details: 32 mg/kg, oral, 22° C. water bath, 7 hours; for Ulcer index Mean ± S. E. / Ulcer index (individual animals): just before immobilization; for Ulcer index Mean ± S. E.: 5 animals; for Ulcer index (individual animals): single animals No. 1-5; for Inh. %: ulcer index inhibition vs control
Procedure: (A) Inhibition on stress ulcer
Sprague-Dawley rats weighing about 200 g were used. Each animal was immobilized in a small cage and put in a water bath allowing to respire. The temperature of the water bath kept at 22° C. The test compound .circle.A and .circle.B were administered orally just before the immobilization. Seven hours later, the animals were sacrificed and their stomachs were removed. The stomach was then fixed with 2% formalin. The area of ulcers was measured for each animal. The mean area (mm^2) in the test animals was compared with that in the control animals.

[2] = Effect on passive cutaneous anaphylaxis (PCA); format: in vivo, female Sprague-Dawley rats; details: intravenously with the antigen
Procedure: (B) Effect on passive cutaneous anaphylaxis (pCA).
Recipient animals for PCA reactions were female Sprague-Dawley rats, 7 weeks old, 180 g-200 g (Nihon Kurea). Each experiment included 5 observations.
Five times crystallized ovalbumin (OVA) (Sigma Lot, 31F-8061) was used as antigen.
Female BDFl mice, 7 weeks old (Nihon Kurea), were given a primary injection (left foot pad, s.c.) of 100 mcg OVA in 0.05 ml saline and after 20 days a booster injection by the same route. Blood was collected 28 days after the primary injection and the sera were stored at -80° C.
The animals were shared with an electric clipper in advance and prepared for Passive Cutaneous Anaphylaxis (PCA) by injecting 0.05 ml of mouse antiserum dilutions (1/16, 1/32) in each side of the dorsal skin.
They were then challenged 48 hours later with an intravenous injection of 1 ml of 0.5% Evans Blue containing 5 mg OVA. Fifty minutes later, they were killed and the lesions (diameter) measured.
A minimal skin response was one with a 5 mm or greater diameter blue spot measured on the dermal side of reflected skin. Drug activity was estimated using the following formula; [formula]
Drugs were suspended in 0.1% methyl cellulose/saline and given intravenously with the antigen.

Structure (SMILES) | Ulcer index Mean ± S. E. [1] [mm^2] | Ulcer index (individual animals) [1] | Inh. % [1] [%] | Inhibition (%) ([2]; 1 mg/kg, Antiserum concentration 1/16) | Inhibition (%) ([2]; 1 mg/kg, Antiserum concentration 1/32) | Inhibition (%) ([2]; 10 mg/kg, Antiserum concentration 1/16) | Inhibition (%) ([2]; 10 mg/kg, Antiserum concentration 1/32)
O=C(Nc1nn[nH]n1)c1cc(-c2ccccc2)c2ccccn2c1=O [Compound .circle.B, N-[5-(1H-Tetrazolyl)]-1-phenyl-4H-quinolizin-4-one-3-carboxamide] | 8.4 ± 1.9 | 10 mm^2 and 11 mm^2 and 3 mm^2 and 5 mm^2 | 83.7 |  |  |  | 
O=C(Nc1nn[nH]n1)c1ccc2ccccn2c1=O [Compound .circle.A, N-[5-(1H-Tetrazolyl)]-4H-quinolizin-4-one-3-carboxamide] | 6.2 ± 3.0 | 18 mm^2 and 5 mm^2 and 3 mm^2 and 4 mm^2 and 1 mm^2 | 67.7 | 97.2 | 100 | 94.5 | 100

— US4650804A, “Quinolizinone compounds and pharmaceutical composition comprising the same, useful as anti-ulcerative and anti-allergic agents” (Fujisawa Pharmaceutical Co., Ltd., priority 1984, dated 1987)
